PubChem BioAssay AID816 (SRMLSC, 2007)
Activity calls are given as the source filed them. How the calls were made is not given here.

Test system: S. cerevisiae GAL1 promoter reporter activation counterscreen
Test: yeast Gal1p promoter activation – S. cerevisiae, artefact control for yeast lifespan extension project (AID 816);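 further: yeast growth read after 24 h of incubation with compounds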

| Compound | EC50 |
| --- | --- |
| CN(C)/C=C(/C(=O)c1ccc(Cl)cc1Cl)S(=O)(=O)c1ccc(Cl)cc1 | > 40 µM (inactive) |
| COCCCNC(CC(=O)Nc1ccc(OC)cc1OC)C(=O)O (stereo unspecified) | > 40 µM (inactive) |
| COc1ccc2c3c(cccc13)C(=O)N(O)C2=O | > 40 µM (inactive) |
| CCn1c(=O)c2c(O)cc(=O)oc2c2ccccc21 | > 40 µM (inactive) |
| Cc1cc(C2C(C#N)=C(N)Oc3n[nH]c(C)c32)c(C)s1 (stereo unspecified) | > 40 µM (inactive) |
| O=C(Nc1cccnc1)c1c(O)c2cccc3c2n(c1=O)CC3 | > 40 µM (inactive) |
| COc1cccc(/C=C2\C(=O)N(c3cccc(C)c3)C(=O)c3ccccc32)c1 | > 40 µM (inactive) |
| Cc1ccc(NC(=O)Nc2nc(-c3ccc(C)s3)cs2)cc1 | > 40 µM (inactive) |
| Cc1cccc(NC(=O)c2c(O)c3cccc4c3n(c2=O)CCC4)n1 | > 40 µM (inactive) |
| C=CS(=O)(=O)c1ccc(Oc2ccc(S(=O)(=O)C=C)cc2)cc1 | > 40 µM (inactive) |
| ClC(Cl)(c1nnnn1-c1ccccc1)c1nnnn1-c1ccccc1 | > 40 µM (inactive) |
| CC(C)Cn1c(=O)c(C(=O)Nc2cnccn2)c(O)c2ccccc21 | > 40 µM (inactive) |
| Cc1ccc(S(=O)(=O)Nc2ccccc2/C=N/c2nc3ccccc3n2C(C)C)cc1 | > 40 µM (inactive) |
| COc1ccc(OC)c(NC(=S)N2CCN(C/C=C/c3ccccc3)CC2)c1 | > 40 µM (inactive) |
| CC(C)c1nnc(NC(=O)c2c(O)c3cccc4c3n(c2=O)CCC4)s1 | > 40 µM (inactive) |
| CCOC(=O)/C(=C/c1ccc(OC(=O)c2ccccc2)cc1)C(C)=O | > 40 µM (inactive) |
| O=C(Nc1nccs1)c1ccc2c(=O)n3c(nc2c1)CCCCC3 | > 40 µM (inactive) |
| CC(C)(C)C1CCc2[nH]nc(C(=O)O)c2C1 (stereo unspecified) | > 40 µM (inactive) |
| Cc1ccc(OCC(=O)c2c(O)c3ccccc3oc2=O)cc1C | > 40 µM (inactive) |
| CCCCCC1CC1C(=O)N/N=C/c1ccc(N(C)C)cc1 (stereo unspecified) | > 40 µM (inactive) |
| CC1Cc2ccccc2N1C(=O)Cn1cnc2ccccc2c1=O (stereo unspecified) | > 40 µM (inactive) |
| O=C(O)CCCCCN1C(=O)/C(=C\c2ccncc2)SC1=S | > 40 µM (inactive) |
| Cc1cc(C=C2C(=O)N(C)C(=S)N(C)C2=O)c(C)n1-c1cccnc1 | > 40 µM (inactive) |
| Nc1sc(-c2ccccc2)cc1C(=O)O | > 40 µM (inactive) |
| CCCCC1C(=O)CC[C@H]2[C@@H]1CC(=O)[C@@H]2C/C=C\CCCC(=O)O (stereo partly specified) | > 40 µM (inactive) |
| O=S(=O)(Nc1cccc2c1CCCC2)c1ccc(Cl)cc1 | > 40 µM (inactive) |

| Compound | EC50 |
| --- | --- |
| CCn1ccc(C(=O)Nc2ccc(S(=O)(=O)Nc3ccccc3OC)cc2)n1 | > 40 µM (inactive) |
| CCOC(=O)C1=C(C)Nc2nc(=S)[nH]n2C1c1ccc(Cl)cc1 (stereo unspecified) | > 40 µM (inactive) |
| O=C(CCc1ccccc1)NCCCN1CCOCC1 | > 40 µM (inactive) |
| CCOC(=O)C1CCN(C(c2cc3ccc(C)c(C)c3[nH]c2=O)c2nnnn2C2CCCCC2)CC1 (stereo unspecified) | > 40 µM (inactive) |
| Cc1nn(C(C)(C)C)c(OC(=O)c2ccc(Br)o2)c1Sc1ccccc1 | > 40 µM (inactive) |
| CC(=O)Nc1ccc(C(=O)CSc2nnc(-c3ccc(O)cc3)n2CC2CCCO2)cc1 (stereo unspecified) | > 40 µM (inactive) |
| O=C(c1cnn2c(C(F)F)cc(C3CC3)nc12)N1CCCC1 | > 40 µM (inactive) |
| Cc1cc(N2C(=O)CC(Cc3ccccc3)C2=O)no1 (stereo unspecified) | > 40 µM (inactive) |
| CC(C)c1noc2ncc(C(=O)c3cc(Cl)cc(Cl)c3O)cc12 | > 40 µM (inactive) |
| CCCCC(=Nc1ccccc1OC)C1=C(O)CC(c2ccccc2)CC1=O (stereo unspecified) | > 40 µM (inactive) |
| COc1ccc(O)c(C(=O)c2cc(C#N)c(=O)n(CC3CCCO3)c2)c1 (stereo unspecified) | > 40 µM (inactive) |
| CCCCCOC(=O)CSc1nc2c(c(=O)[nH]c(=O)n2C)n1CCc1ccccc1 | > 40 µM (inactive) |
| CC1CCCN(c2nc3ccccc3nc2C(C#N)C(=O)OC2CCCCC2)C1 (stereo unspecified) | > 40 µM (inactive) |
| Cc1ccc2[nH]c3c(c2c1)CC/C(=C/c1ccccc1)C3=O | > 40 µM (inactive) |
| COc1cccc(C(=O)Oc2cc(N)n(S(=O)(=O)c3ccc(C)cc3)n2)c1OC | > 40 µM (inactive) |
| O=C1NCC2=C1C(c1ccc(Br)cc1)Nc1ccccc1N2 (stereo unspecified) | > 40 µM (inactive) |
| O=C1c2ccccc2C(=O)N1Cc1nc2ccccc2c(=O)n1-c1ccc(Br)cn1 | > 40 µM (inactive) |
| Fc1cccc2sc(Nc3nnc(-c4ccco4)o3)nc12 | > 40 µM (inactive) |
| CC(=O)Oc1c(C(=O)c2nnc(C)o2)c(=O)n(C)c2ccccc12 | > 40 µM (inactive) |
| Cc1ccc(C(=O)/C=C\C(=O)c2ccc(C)cc2)cc1 | > 40 µM (inactive) |
| COc1ccc(C(CNC(=O)c2cccc(Br)c2)N2CCCC2)cc1 (stereo unspecified) | > 40 µM (inactive) |
| Oc1ccc(NCc2ccccc2OCc2ccccc2F)cc1 | > 40 µM (inactive) |
| O=c1c(-c2ccc(Cl)cc2)[n+]([O-])c2ccccc2n1OCc1ccccn1 | > 40 µM (inactive) |
| O=C(NNC1=Nc2cccc3cccc1c23)c1ccccc1Br | > 40 µM (inactive) |
| N#C/C(=C\c1ccccc1)C(=O)N(c1ccccn1)C1CCCCC1 | > 40 µM (inactive) |
| CCN1C(=O)C(=Cc2ccc(C)s2)C(=O)N(CC)C1=S | > 40 µM (inactive) |

| Compound | EC50 |
| --- | --- |
| CN(c1ccccc1)c1nc2ccsc2c(=O)s1 | > 40 µM (inactive) |
| CN1C(=O)C(Cl)(Cl)C(=O)c2ccccc21 | > 40 µM (inactive) |
| CC1(C)Oc2ccccc2OC1(O)c1ccc2ccccc2n1 (stereo unspecified) | > 40 µM (inactive) |
| O=C(/C=C/c1ccccc1)Nc1ncn[nH]1 | > 40 µM (inactive) |
| Cc1ccc(N/C(C(Cl)=C(Cl)Cl)=C(/Cl)[N+](=O)[O-])c(C)c1 | > 40 µM (inactive) |
| O=Cc1cc2ccccc2nc1SCc1ccc(Cl)cc1 | > 40 µM (inactive) |
| CCCn1[nH]cc(SC)c(=O)c1=O | > 40 µM (inactive) |
| Cc1ccc(S(=O)(=O)C(C#N)c2nc3ccccc3nc2N2CCCC2)cc1 (stereo unspecified) | > 40 µM (inactive) |
| CCC1CCCCN1S(=O)(=O)c1ccc(S(=O)(=O)N(Cc2cccs2)C2CC2)cc1 (stereo unspecified) | > 40 µM (inactive) |
| CCCC(=Nc1ccc(N)cc1)C1=C(O)C(C(=O)OC)C(C)(C)CC1=O (stereo unspecified) | > 40 µM (inactive) |
| CC(C)c1ccc2occ(-c3nn[nH]n3)c(=O)c2c1 | > 40 µM (inactive) |
| CC1(C)Cc2ccccc2-c2nnc(SCC(=O)Nc3ccc4c(c3)OCO4)n21 | > 40 µM (inactive) |
| CC(=Nc1ccc2c(c1)nc(CO)n2C)C1=C(O)CC(C)(C)CC1=O | > 40 µM (inactive) |
| CCOC(=O)C1C(c2cccs2)NC(=O)N(C)C1(O)C(F)(F)F (stereo unspecified) | > 40 µM (inactive) |
| CC(C)(C)C(=O)/C(=C/c1cccc([N+](=O)[O-])c1)n1cncn1 | > 40 µM (inactive) |
| CCCCSc1[nH]c(=O)c(C(=O)OCC)cc1C#N | > 40 µM (inactive) |
| NC(=S)N/N=C/c1coc2cc(Cl)ccc2c1=O | > 40 µM (inactive) |
| O=C(c1c[nH]c(C(=O)C(Cl)(Cl)Cl)c1)c1ccccc1Cl | > 40 µM (inactive) |
| CCCCCC(=O)N1CCN(CCN=CC2=C(O)CC(c3ccc(OC)c(OC)c3)CC2=O)CC1 (stereo unspecified) | > 40 µM (inactive) |
| COc1cccc(CSc2nc3ccccc3cc2C=O)c1 | > 40 µM (inactive) |
| CCCCn1c(/N=C/c2ccccc2NS(=O)(=O)c2ccc(C)cc2)nc2ccccc21 | > 40 µM (inactive) |
| CCc1c(C)c(C#N)c2nc3ccccc3n2c1Cl | > 40 µM (inactive) |
| Cc1cccc(OC(=O)n2c(=S)oc3cc(Cl)ccc32)c1 | > 40 µM (inactive) |
| O=C(NCC1CCCO1)c1c(O)c2ccccc2[nH]c1=O (stereo unspecified) | > 40 µM (inactive) |
| CCCCCCCCn1c(=O)c(C(=O)OCC)c(O)c2ccccc21 | > 40 µM (inactive) |
| CC(=NCCc1c(C)[nH]c2ccc(C)cc12)C1=C(O)CC(c2ccccc2)CC1=O (stereo unspecified) | > 40 µM (inactive) |

| Compound | EC50 |
| --- | --- |
| O=C(NCc1cccnc1)c1ccc(S(=O)(=O)N2CCCCC2)cc1 | > 40 µM (inactive) |
| COc1ccc(-c2cc(C(F)(F)F)nc(S(C)(=O)=O)n2)cc1OC | > 40 µM (inactive) |
| COC(=O)c1cc(=O)n(-c2ccccc2)c(=Nc2ccccc2)s1 | > 40 µM (inactive) |
| CCOc1ccccc1/C=c1\sc2ncnn2c1=O | > 40 µM (inactive) |
| COc1ccccc1CN(Cc1nc2ccccc2c(=O)[nH]1)C(=O)Nc1cccc(C)c1 | > 40 µM (inactive) |
| CCOC(=O)c1c(C)oc2c1c(C(c1cccnc1)N1CCCCC1)c(O)c1ccccc12 (stereo unspecified) | > 40 µM (inactive) |
| CCOC(=O)c1c(C)oc2c1c(C(c1cccnc1)N1CCOCC1)c(O)c1ccccc12 (stereo unspecified) | > 40 µM (inactive) |
| O=C1CC(c2ccccc2)CC(O)=C1C=NCCN1CCOCC1 (stereo unspecified) | > 40 µM (inactive) |
| CCCCN(CCCC)c1ccc(C(=O)c2ccccc2C(=O)O)c(O)c1 | > 40 µM (inactive) |
| CCc1ccc(CC2S/C(=C(\C#N)C(C)=O)NC2=O)cc1 (stereo unspecified) | > 40 µM (inactive) |
| Cc1ccc(N(C(=O)CS(=O)CC(=O)Nc2ccc(F)cc2)C(C(=O)NC2CCCCC2)c2ccco2)cc1 (stereo unspecified) | > 40 µM (inactive) |
| COc1ccc(C(C)NC(=O)c2ccccc2)cc1 (stereo unspecified) | > 40 µM (inactive) |
| CCOc1ccc(/C=C2/C(=O)NC(=O)N(CCc3ccc(F)cc3)C2=O)cc1 | > 40 µM (inactive) |
| C[C@]12CC[C@@H](O)C[C@@H]1CC[C@@H]1[C@@H]2CC[C@]2(C)[C@@H](O)CC[C@@H]12 | > 40 µM (inactive) |
| CC1C/C(=C\c2cccnc2)C(=O)/C(=C/c2cccnc2)C1 (stereo unspecified) | > 40 µM (inactive) |
| COc1ccccc1N(CN1CCCC1=O)C(=O)c1c(F)cccc1F | > 40 µM (inactive) |
| CC1CCCCC1NC(=O)/C(C#N)=C/c1ccccc1F (stereo unspecified) | > 40 µM (inactive) |
| CN1CCN(CC(=O)Nc2ccc(Cl)cc2Cl)CC1 | > 40 µM (inactive) |
| O=C1CC(c2ccccc2)CC(O)=C1C=NCCN1CCNCC1 (stereo unspecified) | > 40 µM (inactive) |
| O=C1c2ccccc2-c2onc3c(Oc4ccccc4)cc(O)c1c23 | > 40 µM (inactive) |
| CC1=C(C#N)C2C(/C1=N/O)C2(C)C (stereo unspecified) | > 40 µM (inactive) |
| O=S(=O)(ON(c1ccccc1)S(=O)(=O)c1ccccc1)c1ccccc1 | > 40 µM (inactive) |
| O=C(O)c1ccc(O)c(N2C(=O)Nc3ccccc3N2O)c1 | > 40 µM (inactive) |
